Read-outs that look alike come from different tables or passages of the source. One block for each compound: values may come before it.
What was measured:
[1] = test system: SW620 cells, HDAC6 substrate alpha-tubulin; test: Western blot against acetylated alpha-Tubulin; assay type: cell-based, human; details: 6 h, vs DMSO control
recombinant MBLAC2 = molecular target: T1, recombinant MBLAC2 (Homo sapiens, UniProt Q68D91); test: Palmitoyl-CoA hydrolysis assay; assay type: biochemical; details: for EC50: assay threshold 10 nM
T1 sequence (Q68D91 1-279): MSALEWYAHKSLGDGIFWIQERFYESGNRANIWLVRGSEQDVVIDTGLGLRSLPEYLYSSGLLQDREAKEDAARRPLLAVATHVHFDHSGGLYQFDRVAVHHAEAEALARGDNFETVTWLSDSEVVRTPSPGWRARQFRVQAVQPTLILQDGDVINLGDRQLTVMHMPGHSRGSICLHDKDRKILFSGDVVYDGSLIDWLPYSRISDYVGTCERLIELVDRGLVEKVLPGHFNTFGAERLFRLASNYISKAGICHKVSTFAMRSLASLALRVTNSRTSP

[2] = test system: HDACs or other metalloproteins; test: chemoproteomic competition pulldown assay, whole target panel; details: for affinities (Kd^app) in chemoproteomic assay: doses up to 3000 μM
[3] = test system: CoREST complex subunits RCOR3 and RCOR1; test: HDAC complex selectivity from competition pulldown; assay type: binding, human
HDAC1 and HDAC2 = test: binding kinetics pulldown experiment; parameters: species or system human; details: 4 °C, 30 μM
class IIa HDACs = test: chemoproteomic competition pulldown assay, class IIa HDACs; assay type: binding, human
HDAC6 = details: reported values; cited from earlier work
HDACs 1–3 = test: chemoproteomic competition pulldown assay, HDACs 1–3; assay type: binding, human
HDAC8 = molecular target: T2, HDAC8 (Homo sapiens, UniProt Q9BY41); test: HDAC-Glo enzyme activity assay; assay type: biochemical
T2 sequence (Q9BY41 1-377): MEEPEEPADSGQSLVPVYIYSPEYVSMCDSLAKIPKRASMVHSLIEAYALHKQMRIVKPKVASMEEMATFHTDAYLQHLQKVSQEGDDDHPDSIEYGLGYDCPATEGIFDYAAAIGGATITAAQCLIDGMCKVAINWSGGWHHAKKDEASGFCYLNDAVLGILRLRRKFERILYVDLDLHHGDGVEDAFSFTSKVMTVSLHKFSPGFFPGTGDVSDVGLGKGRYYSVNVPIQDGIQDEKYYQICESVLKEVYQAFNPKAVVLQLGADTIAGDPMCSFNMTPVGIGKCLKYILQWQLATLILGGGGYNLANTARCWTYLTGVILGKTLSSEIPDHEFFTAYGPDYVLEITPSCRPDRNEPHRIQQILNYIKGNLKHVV

[4] = EC50 of MBLAC2 hydrolase activity inhibition

SMILES: O=C(NO)c1cnc(NC2(c3ccccc3)CC2)nc1 [ACY-738]
acetylation of alpha-Tubulin Lys40 [1]: significant overacetylation

EC50 (recombinant MBLAC2; read-out: EC50 of MBLAC2 hydrolase activity inhibition): < 10 nM
SMILES: CC(C)[C@H](C(=O)Nc1ccc(C(=O)NO)cc1)c1ccccc1 [AR-42]

EC50 (recombinant MBLAC2; [4]): < 10 nM
SMILES: CN(C)Cc1c(C(=O)NCCOc2ccc(C(=O)NO)cc2)oc2ccccc12 [Abexinostat]

HDAC binding in chemoproteomic assay [2]: did not bind HDACs
SMILES: CCCCOc1ccc(CC(=O)NO)cc1 [Bufexamac]

lower EC50 value of RCOR3 compared to RCOR1 and other CoREST members [3]: > 10 fold
SMILES: O=C(/C=C/c1ccc(CN(CCO)CCc2c[nH]c3ccccc23)cc1)NO [Dacinostat]

HDAC binding in chemoproteomic assay [2]: did not bind HDACs
SMILES: Cc1cc(Cl)ccc1OCCCC(=O)NO [Droxinostat]

time until target HDACs maximally competed (HDAC1 and HDAC2): more than 2 h
SMILES: Nc1ccccc1NC(=O)c1ccc(CNC(=O)OCc2cccnc2)cc1 [Entinostat]

SMILES: Cc1cc(C)cc(C(=O)NOCCCCCC(=O)NO)c1 [LMK235]
class IIa target engagement (class IIa HDACs): no class IIa target engagement at all

lower EC50 value of RCOR3 compared to RCOR1 and other CoREST members [3]: > 10 fold
SMILES: CN(C)c1ccc(C(=O)NCCCCCCC(=O)NO)cc1 [M344]

SMILES: Cn1c(/C=C/C(=O)NO)ccc1/C=C/C(=O)c1cccc(F)c1 [MC1568]
class IIa target engagement (class IIa HDACs): no class IIa target engagement at all

SMILES: CCCCN(Cc1ccc(C(=O)NO)cc1)C(=O)Nc1ccccc1 [Nexturastat A]
pEC50 HDAC6 (HDAC6): 8.3

affinities (Kd^app) in chemoproteomic assay [2]: three-digit micromolar
SMILES: O=C(O)CCCc1ccccc1 [Phenylbutanoic Acid]

EC50 (recombinant MBLAC2; [4]): < 10 nM
SMILES: CCCCc1nc2cc(/C=C/C(=O)NO)ccc2n1CCN(CC)CC [Pracinostat]

pKd^app range for HDACs 1–3 (HDACs 1–3): 4.9–6.0
SMILES: O=C(CCCCCCNC(=O)c1cnc(N(c2ccccc2)c2ccccc2)nc1)NO [Ricolinostat]

lower EC50 value of RCOR3 compared to RCOR1 and other CoREST members [3]: > 10 fold
SMILES: C/C=C1\NC(=O)[C@H]2CSSCC/C=C/[C@H](CC(=O)N[C@H](C(C)C)C(=O)N2)OC(=O)[C@H](C(C)C)NC1=O [Romidepsin]

MBLAC2 enzyme activity, single dose screen (recombinant MBLAC2; 300 nM drug, 30 nM MBLAC2): little if any effect on enzyme activity
effect on MBLAC2 activity (recombinant MBLAC2; at a 1,000-fold higher concentration): did not affect MBLAC2 activity
SMILES: Nc1cc(F)ccc1NC(=O)c1ccc(CNC(=O)/C=C/c2cccnc2)cc1 [Tucidinostat]

affinities (Kd^app) in chemoproteomic assay [2]: three-digit micromolar
SMILES: CCCC(CCC)C(=O)O [Valproic Acid]

activity against HDAC8 (HDAC8): very low activity
SMILES: O=C(CCCCCCC(=O)Nc1ccccc1)NO [Vorinostat]

— publication PMC9339481 (Nature chemical biology, 2022)
